Test results taken from patent US6552027B2, “Quinazolines for treating brain tumor” (Parker Hughes Institute, priority 1998, dated 2003).
Where a name gives a salt, the structure may show the parent alone. Read-outs that look alike come from different tables or passages of the source. Blank lines part the entries; values can stand above or below the compound they belong to.

How the values were obtained:
U373 cells = assay: Adhesion of glioblastoma cells to ECM protein-coated plates; type: cell-based, human; conditions: for IC50: Homo sapiens, U373 MG
Method: In vitro adhesion assays were performed to (a) study the baseline adhesive properties of various glioblastoma cell lines and (b) evaluate the effects of quinazoline derivatives on the adhesive properties of glioblastoma cells. The plates for the adhesion assays were precoated with the extracellular matrix proteins laminin, fibronectin or type IV collagen (each at a final concentration of 1 μg/ml in PBS) overnight at 4° C. and dried. On the day of the experiment, the wells were rehydrated and blocked with 10% bovine serum albumin in PBS for 1 hour at room temperature and used for the adhesion assays, as described below.
DMSO (0.1%) was included as a vehicle control. After treatment, cells were detached from the flasks with 0.05% trypsin (Life Technologies) resuspended in DMEM, incubated at 37° C. for 2 hours to allow them to recover from the trypsinization stress and examined for their ability to adhere to plates precoated with ECM proteins.
In adhesion assays, cells were centrifuged, washed twice with serum-free DMEM, counted and resuspended in serum-free DMEM to a final concentration of 2.5×10^5 cells/ml. One hundred μl of the cell suspension containing 2.5×10^4 cells were added to each well and cells were allow d to adhere for 1 hour at 37° C. in a humidified 5% CO2 atmosphere. The adherent fraction was quantitated using MTT (3-[4,5-dimethylthiazol-2-yl]-2,5-diphenyltetrazolium bromide) assays. […] The adherent fractions of cells treated with quinazoline derivatives were compared to those of DMSO-treated control cells and the percent inhibition of adhesion was determined sing the formula: [formula]
Each treatment condition was evaluate d in duplicate in 3 independent experiments.

U373 glioblastoma cells = assay: Glioblastoma cell invasion through Matrigel matrix (Boyden chambers); type: cell-based; conditions: Homo sapiens, U373 MG
Method: The in vitro invasiveness of glioblastoma cells was assayed using a previously published method which employs Matrigel-coated Costar 24-well transwell cell culture chambers (“Boyden chambers”) with 8.0-μm-pore polycarbonate filter inserts (Albini, A., Iwamoto, Y., Kleinman, H. K., Martin, G. R., Aaronson, S. A., Kozlowski, J. M., and McEwan, R. N., 1987, Cancer Res., 47:3239-3245). The chamber filters were coated with 50 μg/ml of Matrigel matrix, incubated overnight at room temperature under a laminar flow hood and stored at 4° C. Matrigel matrix is made up of several components of the extralcellular matrix (ECM), including collagens, laminin and proteo-glycans
On the day of the experiment, the coated inserts were rehydrated with 0.5 ml serum-free DMEM containing 0.1% bovine serum albumin for 1-2 hours. To study the effects of quinazoline derivatives on invasiveness of glioblastoma cells, exponentially growing cells were incubated overnight with WHI-P97, WHI-P131 and WHI-P154 at various concentrations ranging from 1 μM to 50 μM. The cells were trypsinized, washed twice with serum-free DMEM containing BSA, counted and resuspended at 1×10^5 cells/ml. 0.5 ml cell suspension containing 5×10^4 cells in a serum-free DMEM containing quinazoline compounds or vehicle was added to the Matrigel-coated and rehydrated filter inserts. Next, 750 μl of NIH fibroblast conditioned medium was placed as a chemoattractant in 24-well plates and the inserts were placed in wells and incubated at 37° C. for 48 hours. […] The invasive cells that migrated to the lower side of the filter were fixed, stained with Hema-3 solutions and counted under microscope. Five to 10 random fields per filter were counted to determine the mean (±SE) values for the invasive fraction. The invasive fractions of cells treated with quinazoline derivatives were compared to those of DMSO treated control cells and he percent inhibition of invasiveness was determined using the formula: [formula]
Each treatment condition was evaluated in duplicate in 3 independent experiments. IC50 values were calculated by non-linear regression analysis using Graphpad Prisin Software Version 2.0 (Graphpad Software Inc., San Diego, Calif.).

[1] = system: U373 human glioblastoma cell line; assay: MTT cytotoxicity assay, U373 glioblastoma cells; conditions: for IC50: Homo sapiens, U373 MG
Method: (§1) The cytotoxicity assay of various compounds against human brain tumor cell lines was performed using the MTT (3-[4,5-dimethylthiazol-2-yl]-2,5-diphenyl tetrazolium bromide) assay (Boehringer Mannheim Corp., Indianapolis, Ind.). Briefly, exponentially growing brain tumor cells were seeded into a 96-well plate at a density of 2.5×10^4 cells/well and incubated for 36 hours at 37° C. prior to drug exposure. […] Triplicate wells were used for each treatment.
Human glioblastoma cell line U373 was obtained from American. Type Culture Collection (Rockville, Md.) and maintained as a continuous cell line in Dulbecco's modified Eagles's medium supplemented with 10% fetal bovine serum and antibiotics. The B-lineage acute lymphoblastic leukemia cell line Nalm-6 was used as a negative control.
(§2) The cells were incubated with the various compounds for 24-36 hours at 37° C. in a humidified 5% CO2 atmosphere. To each well, 10 μl of MTT (0.5 mg/ml final concentration) was added and the plates were incubated at 37° C. for 4 hours to allow MTT to form formazan crystals by reacting with metabolically active cells. The formazan crystals were solubilized overnight at 37° C. in a solution containing 10% SDS in 0.01 M HCl. The absorbence of each well was measured in a microplate reader (Labsystems) at 540 nm and a reference wavelength of 690 nm. To translate the OD540 values into the number of live cells in each well, the OD540 values were compared to those on standard OD540—versus—cell number curves generated for each cell line. The percent survival was calculated using the formula: [formula]
(§3) The IC50 values were calculated by non linear regression analysis.

[2] = system: U87 human glioblastoma cell line; assay: MTT cytotoxicity assay, U87 glioblastoma cells; type: cell-based; conditions: Homo sapiens, unconjugated compound, read-out: IC50 value
Method: as §1, §2, §3
Apoptosis was also evaluated using the nick-end-labeling assay, as described for Example 3.

NALM-6 leukemia cells = assay: MTT cytotoxicity assay, EGF-R negative leukemia cells (negative control line); type: cell-based; conditions: NALM-6; FIG. 5B
Method: Triplicate wells were used for each treatment.
Human glioblastoma cell line U373 was obtained from American.
The percent survival was calculated using the formula: [formula]

[3] = system: U373 human glioblastoma cells; assay: SCID mouse xenograft model of human glioblastoma; conditions: 1 mg/kg/day×10 days i.p.
Method: The right hind legs of the CB. 17 SCID mice were inoculated subcutaneously (s.c.) with 0.5×10^6 U373 human glioblastoma cells in 0.2 mL PBS. […] Daily treatments with PBS, unconjugated EGF (1 mg/kg/dose), and unconjugated WHI-P154 (1 mg/kg/dose) were used as controls. Mice were monitored daily for health status and tumor growth, and were sacrificed if they became moribund developed tumors which impeded their ability to attain food or water, at the end of the 3-month observation period. Tumors were measured using Vernier calipers twice weekly, and the tumor volumes were calculated according to the following formula (Friedman, S. H., mDolan, M. E., Pegg, A. E., Marcelli, S., Keir, S., Catino, J. J., Binger, D. D., Schold, S. C., Jr., 1995, Cancer Res., 55:2853-2857): [formula]
For histopathologic studies, tissues were fixed in 10% neutral buffered formalin, dehydrated, and embedded in paraffin by routine methods. Glass slides with affixed 6 micron tissue sections were prepared and stained with hematoxylin/eosin. Primary endpoints of interest were tumor growth and tumor-free survival outcome. Estimation of life table outcome and comparisons of outcome between groups were done, as previously reported (Waurzyniak, et al., 1997, Clinical Cancer Research 3:881-890; Anderson, et al., 1995, Cancer Res. 55:1321-1327; Uckun, et al., 1997, J. Clin. Oncol. 15:2214-2221).

[4] = one bound for all three coatings, read-out: all IC50 values, adhesion to laminin-, fibronectin- and collagen-coated plates
[5] = U373, 3 independent experiments, 48 hours, read-out: mean IC50 value, invasion through Matrigel matrix
[6] = U373, 3 independent experiments, read-out: range of IC50 values, invasion through Matrigel matrix
[7] = read-out: IC50 value derived from the average values of three experiments, invasion

SMILES: COc1cc2ncnc(Nc3cccc(Br)c3)c2cc1OC [WHI-P79, 4-(3′-Bromophenyl)-amino-6,7-dimethoxyquinazoline]
IC50 (U373 cells; [4]): > 50 µM

SMILES: COc1cc2ncnc(Nc3ccc(O)c(Br)c3)c2cc1OC [WHI-P154, 4-(3′-Bromo-4′-hydroxylphenyl)-amino-6,7-dimethoxyquinazoline]
IC50 ([1]; read-out: composite survival curve IC50 value): 158 µM
IC50 ([1]; read-out: mean (±SE) IC50 value): 167 ± 26.9 µM
IC50 [2]: 179 ± 18.5 µM
cytotoxicity against EGF-R negative leukemia cells (in words) (NALM-6 leukemia cells): marked cytotoxicity
time at which tumors reached a size of 50 mm^3 [3]: 36.0 ± 5.1 days
median tumor-free survival ([3]; N=5): 19 days
IC50 (U373 cells; 16 hours treatment, N=3, read-out: mean IC50 value, adhesion to collagen-coated plates): 42.7 ± 2.5 µM
IC50 (U373 cells; 16 hours treatment, N=3, read-out: mean IC50 value, adhesion to fibronectin-coated plates): 29.8 ± 3.1 µM
IC50 (U373 cells; 16 hours treatment, N=3, read-out: mean IC50 value, adhesion to laminin-coated plates): 36.1 ± 3.5 µM
IC50 (U373 glioblastoma cells; [5]): 4.46 ± 0.8 µM
IC50 (U373 glioblastoma cells; [6]): 3.53 to 5.01 µM
IC50 (U373 glioblastoma cells; [7]): 5.2 µM

SMILES: COc1cc2ncnc(Nc3cc4ccccc4cc3O)c2cc1OC [WHI-P292, 4-(2′-Hydroxy-naphthyl-3′)-amino-6,7-dimethoxyquinazoline]
IC50 [1]: 38.2 µM

SMILES: O=c1c(-c2ccc(O)cc2)coc2cc(O)cc(O)c12 [genistein, reference compound]
IC50 ([1]; read-out: IC50 value): > 250 µM
cytotoxicity against brain tumor cells (in words) ([1]; U373, MTT, 0.1 to 250 μM, FIGS. 1A and 1B): also ineffective
inhibition of glioblastoma cell adhesion (in words) (U373 cells; ECM-coated plates): did not affect glioblastoma cell adhesion and motility

Results, then the compound that gave them:

melting point: 277 to 279 °C
SMILES: COc1cc2ncnc(Nc3cc4ccccc4cc3O)c2cc1OC (as salt: salt) [WHI-P292, 4-(2′-Hydroxy-naphthyl-3′)-amino-6,7-dimethoxyquinazoline]

IC50 (U373 glioblastoma cells; [5]): 10.6 ± 1.8 µM
IC50 (U373 glioblastoma cells; [6]): 9.57 to 11.6 µM
IC50 (U373 glioblastoma cells; [7]): 9.58 µM
SMILES: COc1cc2ncnc(Nc3cc(Br)c(O)c(Br)c3)c2cc1OC [WHI-P97, 4-(3′, 5′-Dibromo-4′-hydroxylphenyl)-amino-6,7-dimethoxyquinazoline]

melting point: 225 to 228 °C
SMILES: COc1cc2ncnc(Nc3ccc(C)c(Br)c3)c2cc1OC [WHI-P111, 4-(3′-Bromo-4′-methylphenyl)-amino-6,7-dimethoxyquinazoline]

IC50 (U373 cells; [4]): > 50 µM
IC50 (U373 glioblastoma cells; [5]): 7.07 ± 1.8 µM
IC50 (U373 glioblastoma cells; [6]): 5.08 to 8.59 µM
IC50 (U373 glioblastoma cells; [7]): 7.95 µM
SMILES: COc1cc2ncnc(Nc3ccc(O)cc3)c2cc1OC [WHI-P131, 4-(4′-Hydroxylphenyl)-amino-6,7-dimethoxyquinazoline]
